Drawing on patent US8362236B2, “Macrocyclic compound” (Chugai Seiyaku Kabushiki Kaisha, priority 2007, dated 2013), this text covers IC50 for 25 compounds.

SMILES strings stand for the structures.

In one assay the target is T1, Human HSP90 alpha (Homo sapiens, UniProt P07900).
T1 construct: His tag (inferred from purification on a HisPrep FF column); made in house; host or cells: E. coli BL21 codon plus (Stratagene)
The assay is described as follows: Assay for the activity of inhibiting HSP90 enzyme (ATPase, malachite green). The assay is classed as biochemical. As to conditions: purified human HSP90 alpha, 1 mM ATP added, 37° C. for two hours, OD655; read-out: Enzyme-inhibiting activity (IC50, μM) Human HSP90α. Here is the method:
Introduction of pETHuHSP90a into E. coli (BL21 codon plus; Stratagene) was followed by O/N incubation in the presence of 0.1 mM IPTG, and the collected E. coli cells were disrupted by ultrasonication in a Lysis buffer (50 mM Tris-HCl (pH8.0), 10 mM MgCl2, 0.1% Triton X-100, Protease inhibitor cocktail tablets (Roche Diagnostics)). The cell lysate solution was centrifuged (10,000 rpm×30 minutes), and the supernatant obtained after centrifugation was used as a crude extract. The crude extract was fractionated using HisPrep FF column and HiTrap Q column (Amersham) to prepare a purified enzyme solution.
An enzyme solution for assays was prepared by dilution of the purified enzyme solution using an assay buffer (50 mM Tris HCl pH7.6, 20 mM KCl, 5 mM MgCl2).
10 μL each of various concentrations of the test substances (10% DMSO solution) was added to each well, and for the positive control wells, 10 μL of 10% DMSO was added. 10 μL of 10% DMSO was also added to the negative control well.
10 μL of 1 mM ATP was added to all of the wells, and the reaction was carried out at 37° C. for two hours.

For a further assay, the system named is HCT116 cells. The assay is described as follows: Measurement of cell growth inhibition (Cell Counting Kit-8, four days).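 Further: cells exposed to a range of test concentrations at 37 °C in 5% CO2 for four days, then growth read as absorbance with Cell Counting Kit-8.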 As to conditions: Homo sapiens, HCT-116, 96 h, read-out: Cell growth-inhibiting activity (IC50, μM) Colon cancer HCT116, HCT116 colon cancer cell line, four days culture. In general terms: Formazan colour is commonly taken as a measure of viable cells.

Description for HCT116 cells: Cells were maintained under conditions recommended by the provider of each cell line. Cells suspended in a medium were added to solutions containing various concentrations of the test substance, and the cells were cultured at 37° C. in a 5% CO2 incubator. Four days later, Cell Counting Kit-8 was added, and absorbance measurements were taken following the protocol included in the kit.

In the case of `Cc1cc(C)c2cc1C(=O)N(C)CCCNC(=O)CCSc1cc-2nc(N)n1` [Compound 3, 4-amino-15,18,20-trimethyl-7-thia-3,5,11,15-tetraazatricyclo[15.3.1.1^2,6]docosa-1(20),2(22),3,5,17(21),18-hexane-10,16-dione], the IC50 was found to be 1.6 µM on Human HSP90 alpha and 0.92 µM in the assay on HCT116 cells.

`Cc1cc(C)c2cc1C(=O)NCCNC(=O)CCCSc1cc-2nc(N)n1` [Compound 4, 4-amino-18,20-dimethyl-7-thia-3,5,12,15-tetraazatricyclo[15.3.1.1^2,6]docosa-1(20),2(22),3,5,17(21),18-hexaene-11,16-dione]: on Human HSP90 alpha, the IC50 is 1 µM.

On to `Cc1cc(C)c2cc1C(=O)NCCCCNC(=O)CCCSc1cc-2nc(N)n1` [Compound 5, 4-amino-20,22-dimethyl-7-thia-3,5,12,17-tetraazatricyclo[17.3.1.1^2,6]tetracosa-1(22),2(24),3,5,19(23),20-hexane-11,18-dione], for which the IC50 at Human HSP90 alpha worked out at 1 µM; with HCT116 cells it was 0.5 µM.

`Cc1cc(C)c2cc1C(=O)NCCCCCNC(=O)C(C)CSc1cc-2nc(N)n1` (stereo not drawn) [Compound 7, 4-amino-9,20,22-trimethyl-7-thia-3,5,11,17-tetraazatricyclo[17.3.1.1^2,6]tetracosa-1(22),2(24),3,5,19(23),20-hexaene-10,18-dione]: the IC50 worked out at 1.6 µM at Human HSP90 alpha and 0.4 µM in the assay on HCT116 cells.

`Nc1nc2cc(n1)-c1cc(c(Cl)cc1Cl)C(=O)NCCCNC(=O)CCS2` [Compound 8, 4-amino-18,20-dichloro-7-thia-3,5,11,15-tetraazatricyclo[15.3.1.1^2,6]docosa-1(20),2(22),3,5,17(21),18-hexaene-10,16-dione]: the IC50 on Human HSP90 alpha was 2 µM; in the assay with HCT116 cells, 0.21 µM.

As to `COc1cc(C)c2cc1C(=O)NCCCC(=O)NCCSc1cc-2nc(N)n1` [Compound 9, 4-amino-18-methoxy-20-methyl-7-thia-3,5,10,15-tetraazatricyclo[15.3.1.1^2,6]docosa-1(20),2(22),3,5,17(21),18-hexaene-11,16-dione], the IC50 was 1.9 µM on Human HSP90 alpha and greater than 10 µM in the assay with HCT116 cells.

Turning to `COc1cc(C)c2cc1C(=O)N(C)CCCC(=O)NCCSc1cc-2nc(N)n1` [Compound 10, 4-amino-18-methoxy-15,20-dimethyl-7-thia-3,5,10,15-tetraazatricyclo[15.3.1.1^2,6]docosa-1(20),2(22),3,5,17(21),18-hexaene-11,16-dione], the results for the IC50 at Human HSP90 alpha and in the assay on HCT116 cells were 1.1 µM and greater than 10 µM, respectively.

Consider `Cc1cc(C)c2cc1C(=O)NCCCC(=O)NCCSc1cc-2nc(N)n1` [Compound 11, 4-amino-18,20-dimethyl-7-thia-3,5,10,15-tetraazatricyclo[15.3.1.1^2,6]docosa-1(20),2(22),3,5,17(21),18-hexaene-11,16-dione], for which the IC50 on Human HSP90 alpha was determined as 1.2 µM.

Consider `Cc1cc(C)c2cc1C(=O)NCCC(=O)NCCSc1cc-2nc(N)n1` [Compound 12, 4-amino-17,19-dimethyl-7-thia-3,5,10,14-tetraazatricyclo[14.3.1.1^2,6]henicosa-1(19),2(21),3,5,16(20),17-hexaene-11,15-dione], for which the IC50 at Human HSP90 alpha turned out to be 1.3 µM; in the assay on HCT116 cells it was 0.72 µM.

On to `Cc1cc(C)c2cc1C(=O)N(C)CCCC(=O)NCCSc1cc-2nc(N)n1` [Compound 13, 4-amino-15,18,20-trimethyl-7-thia-3,5,10,15-tetraazatricyclo[15.3.1.1^2,6]docosa-1(20),2(22),3,5,17(21),18-hexaene-11,16-dione], for which the values for the half-maximal inhibitory concentration (IC50) on Human HSP90 alpha and in the assay with HCT116 cells were 1.2 µM and 4.4 µM, respectively.

For the compound `Cc1cc(C)c2cc1C(=O)NCCCCCC(=O)NCCSc1cc-2nc(N)n1` [Compound 14, 4-amino-20,22-dimethyl-7-thia-3,5,10,17-tetraazatricyclo[17.3.1.1^2,6]tetracosa-1(22),2(24),3,5,19(23),20-hexaene-11,18-dione], the IC50 at Human HSP90 alpha stood at 0.8 µM; in the assay with HCT116 cells it was 0.15 µM.

For `Nc1nc2cc(n1)-c1cc(c(Cl)cc1Cl)C(=O)NCCCC(=O)NCCS2` [Compound 15, 4-amino-18,20-dichloro-7-thia-3,5,10,15-tetraazatricyclo[15.3.1.1^2,6]docosa-1(20),2(22),3,5,17(21),18-hexaene-11,16-dione], the values for the IC50 at Human HSP90 alpha and in the assay with HCT116 cells were 1.6 µM and 0.14 µM, respectively.

Regarding `COc1cc(C)c2cc1C(=O)NCCCOc1cccc(c1)Sc1cc-2nc(N)n1` [Compound 16, 4-amino-20-methoxy-22-methyl-13-oxa-7-thia-3,5,17-triazatricyclo[17.3.1.1^2,6.1^8,12]pentacosa-1(22),2(24),3,5,8(25),9,11,19(23),20-nonaen-18-one], the IC50 at Human HSP90 alpha was found to be 1.6 µM.

With `CCOc1cc(C)c2cc1C(=O)NCCCOc1cccc(c1)Sc1cc-2nc(N)n1` [Compound 17, 4-amino-20-ethoxy-22-methyl-13-oxa-7-thia-3,5,17-triazatricyclo[17.3.1.1^2,6.1^8,12]pentacosa-1(22),2(24),3,5,8(25),9,11,19(23),20-nonaen-18-one], the IC50 at Human HSP90 alpha was determined as 1.3 µM.

Take `Nc1nc2cc(n1)-c1cc(c(Cl)cc1Cl)OCCCCOc1cccc(c1)S2` [Compound 21, 4-amino-20,22-dichloro-13,18-dioxa-7-thia-3,5-diazatricyclo[17.3.1.1^2,6.1^8,12]pentacosa-1(23),2,4,6(24),8,10,12(25),19,21-nonaene]: the IC50 on Human HSP90 alpha worked out at 1.8 µM.

With `Nc1nc2cc(n1)-c1cc(c(Cl)cc1Cl)OCCCCCOc1cccc(c1)S2` [Compound 22, 4-amino-21,23-dichloro-13,19-dioxa-7-thia-3,5-diazatricyclo[18.3.1.1^2,6.1^8,12]hexacosa-1(24),2,4,6(24),8,10,12(26),20,22-nonaene], the IC50 on Human HSP90 alpha came to 1.7 µM; in the assay on HCT116 cells, 2.4 µM.

For `Nc1nc2cc(n1)-c1cc(c(Cl)cc1Cl)OCCOCCOc1cccc(c1)S2` [Compound 23, 21,23-dichloro-13,16,19-trioxa-7-thia-3,5-diazatricyclo[18.3.1.1^2,6.1^8,12]hexacosa-1(23),2(25),3,5,8(26),9,11,20(24),21-nonaen-4-ylamine], the IC50 is 1.1 µM on Human HSP90 alpha and 1.4 µM with HCT116 cells.

In the case of `Nc1nc2nc(n1)-c1cc(c(Cl)cc1Cl)OCCCCOc1cccc(c1)S2` [Compound 26, 20,22-dichloro-13,18-dioxa-7-thia-3,5,24-triazatricyclo[17.3.1.1^2,6.1^8,12]pentacosa-1(22),2(24),3,5,8(25),9,11,19(23),20-nonaen-4-ylamine], the IC50 worked out at 3.3 µM on Human HSP90 alpha and 7.4 µM in the assay with HCT116 cells.

Regarding `Nc1nc2nc(n1)-c1cc(c(Cl)cc1Cl)OCCOCCOc1cccc(c1)S2` [Compound 27, 21,23-dichloro-13,16,19-trioxa-7-thia-3,5,25-triazatricyclo[18.3.1.1^2,6.1^8,12]hexacosa-1(23),2(25),3,5,8(25),9,11,20(24),21-nonaen-4-ylamine], the IC50 on Human HSP90 alpha was found to be 2.1 µM; with HCT116 cells, 1.4 µM.

On to `Nc1nc2cc(n1)-c1cc(c(Cl)cc1Cl)C(=O)NCCCCCC(=O)NCCS2` [Compound 28, 4-amino-20,22-dichloro-7-thia-3,5,10,17-tetraazatricyclo[17.3.1.1^2,6]tetracosa-1(22),2(24),3,5,19(23),20-hexaene-11,18-dione], for which the figures for the concentration for half-maximal inhibition (IC50) on Human HSP90 alpha and in the assay on HCT116 cells were 1.4 µM and 0.2 µM, respectively.

`Cc1cc(C)c2cc1C(=O)NCCOCCNC(=O)CCSc1cc-2nc(N)n1` [Compound 29, 4-amino-20,22-dimethyl-14-oxa-7-thia-3,5,11,17-tetraazatricyclo[17.3.1.1^2,6]tetracosa-1(22),2(24),3,5,19(23),20-hexaene-10,18-dione]: the IC50 worked out at 1.7 µM at Human HSP90 alpha and 0.3 µM in the assay with HCT116 cells.

With `Cc1cc(C)c2cc1C(=O)NCCN(C)CCNC(=O)CCSc1cc-2nc(N)n1` [Compound 30, 4-amino-14,20,22-trimethyl-7-thia-3,5,11,14,17-pentaazatricyclo[17.3.1.1^2,6]tetracosa-1(22),2(24),3,5,19(23),20-hexaene-10,18-dione], the IC50 on Human HSP90 alpha is 1.8 µM; with HCT116 cells it was 0.5 µM.

`Cc1cc(C)c2cc1C(=O)NC[C@@H](O)CNC(=O)CCSc1cc-2nc(N)n1` [Compound 31, (S)-4-amino-13-hydroxy-18,20-dimethyl-7-thia-3,5,11,15-tetraazatricyclo[15.3.1.1^2,6]docosa-1(20),2(22),3,5,17(21),18-hexaene-10,16-dione]: the values for the IC50 at Human HSP90 alpha and in the assay with HCT116 cells were 0.8 µM and 1.3 µM, respectively.

In the case of `Cc1cc(C)c2cc1C(=O)NCCCN(C)C(=O)CCSc1cc-2nc(N)n1` [Compound 32, 4-amino-11,18,20-trimethyl-7-thia-3,5,11,15-tetraazatricyclo[15.3.1.1^2,6]docosa-1(20),2,4,6(22),17(21),18-hexaene-10,16-dione], the IC50 came out at 0.5 µM at Human HSP90 alpha and 0.4 µM with HCT116 cells.

In the case of `Cc1cc(C)c2cc1C(=O)NCCCN(CCO)C(=O)CCSc1cc-2nc(N)n1` [Compound 34, 4-amino-11-(2-hydroxyethyl)-18,20-dimethyl-7-thia-3,5,11,15-tetraazatricyclo[15.3.1.1^2,6]docosa-1(20),2,4,6(22),17(21),18-hexaene-10,16-dione], the IC50 at Human HSP90 alpha was found to be 2.8 µM; in the assay on HCT116 cells, 1.1 µM.

What is called IC50 is the concentration that inhibits the measured activity by half.
